Reference: patent publication US20240409934A1, “FOXO1-TARGETED THERAPY FOR THE TREATMENT OF CANCER” (BOARD OF REGENTS, THE UNIVERSITY OF TEXAS SYSTEM, priority 2021, published 2024)

Tests used:
Assay type in all cases: cell-based
BT549 cells = experiment: Gene expression by qRT-PCR (TUBB reference)
Procedure: (§1) Cell culture and drug treatments. Cell lines were obtained from ATCC (American Type Culture Collection, Manassas, VA) and grown under standard conditions (5% CO2, 10% FBS (fetal bovine serum), with 5% antifungal/antibacterial). Cell lines were tested for Mycoplasma using the MycoAlert Mycoplasma Detection Kit (Lonza, Basel Switzerland, cat: LT07-218); all experiments were done with mycoplasma negative cells. U87MG cells were propagated in MEM (Minimal Essential Medium). BT549 and DBTRG cells were propagated in RPMI (Roswell Park Memorial Institute 1640 Medium). LN18, U118MG, A172 and LN229 cells were propagated in DMEM (Dulbecco's Modified Eagle Medium). Neurosphere/cancer stem cell cultures for U87MG and BT549 cell lines were plated with 40,000 cells per mL in 3D Tumorsphere Medium XF (Sigma cat: C-28070, Burlington, MA). BT549 cancer stem cell cultures were supplemented with 1XB27 XenoFree CTS (Gibco/Thermo Fisher Waltham, MA, USA). AS1842856 was purchased from Calbiochem (Danvers, MA) and utilized at 200 nM, 500 nM and 1 μM final concentrations as indicated. AS1708727 was purchased from MedChem Express (Monmouth Junction, NJ) and was used at 0.5 μM, 1.0 µM and 2.0 μM concentrations. 5-aza-2'-deoxycytidine (5-AZA) was purchased from Millipore/Sigma (Burlington, MA) and utilized at a final concentration of 3 μM. Total RNA was prepared using the Qiagen RNeasy kit (Hilden, Germany), which was then used to generate cDNA using Superscript Reverse Transcriptase II (Invitrogen, Carlsbad, CA). Samples (cDNAs) were analyzed using (Power SYBR Green Master Mix, Applied Biosystems, Foster City, CA) and the ABI Step-One Real-time system (Carlsbad, CA). Expression levels were normalized to Beta-Tubulin, TUBB in gene expression experiments and calculated using 2-4ACT method (Livak et al., 2001). Primer sequences are detailed in Table 1. MDA-MB-468 cells were grown to log phase in DMEM with 10% FBS without antibiotics. BT549 cells were grown to log phase in DMEM with 10% FBS without antibiotics. Cells were transfected with FOXO1 esiRNA (EHU156591 Sigma, St. Louis, MO) or EGFP control esiRNA (EHUEGFP) using Lipofectamine 3000 (utilized only […] reagent, Invitrogen, Carlsbad, CA).

MDA-MB-468 = experiment: Colony formation assay (crystal violet); conditions: treated five days
BT549 = experiment: Colony formation assay (crystal violet); conditions: treated five days
Procedure: (§2) Cell culture and drug treatments. Cell lines were obtained from ATCC (American Type Culture Collection, Manassas, VA) and grown under standard conditions (5% CO2, 10% FBS (fetal bovine serum), with 5% antifungal/antibacterial). Cell lines were tested for Mycoplasma using the MycoAlert Mycoplasma Detection Kit (Lonza, Basel Switzerland, cat: LT07-218); all experiments were done with mycoplasma negative cells. U87MG cells were propagated in MEM (Minimal Essential Medium). BT549 and DBTRG cells were propagated in RPMI (Roswell Park Memorial Institute 1640 Medium). LN18, U118MG, A172 and LN229 cells were propagated in DMEM (Dulbecco's Modified Eagle Medium). Neurosphere/cancer stem cell cultures for U87MG and BT549 cell lines were plated with 40,000 cells per mL in 3D Tumorsphere Medium XF (Sigma cat: C-28070, Burlington, MA). BT549 cancer stem cell cultures were supplemented with 1XB27 XenoFree CTS (Gibco/Thermo Fisher Waltham, MA, USA). AS1842856 was purchased from Calbiochem (Danvers, MA) and utilized at 200 nM, 500 nM and 1 μM final concentrations as indicated. AS1708727 was purchased from MedChem Express (Monmouth Junction, NJ) and was used at 0.5 μM, 1.0 µM and 2.0 μM concentrations. 5-aza-2′-deoxycytidine (5-AZA) was purchased from Millipore/Sigma (Burlington, MA) and utilized at a final concentration of 3 μM. Cells were plated at a density of 2,700 cells per mL and were treated five days with indicated drug. Treatments were investigated in triplicate (in numerous independent experiments) and stained with crystal violet. Plates were aspirated of media then each well was washed with 1.0 mL of 1x phosphate buffered saline (PBS) once before being stained with 1.0 mL of crystal violet stain (0.5% crystal violet in buffered formalin) and incubated for 15 minutes. The stain was aspirated, and wells were washed 3 times with 0.5 mL of 1x PBS. After collections were completed, crystal violet-stained plates were solubilized using 0.5 mL on each well of 10% acetic acid and placed on shaker for 1 hour. Solubilized samples were transferred to 96 well plates and quantified on a spectrophotometer at 590 nm. Quantified plates were analyzed with a Tukey test. Error bars were added using the standard deviation. Cells were plated at 2,700 cells per mL and were treated five days with the indicated drug. Treatments were investigated in triplicate (in numerous independent experiments) and stained with crystal violet. Plates were aspirated of media, then each well was washed with 1.0 mL of 1× phosphate-buffered saline (PBS) once before being stained with 1.0 mL of crystal violet stain (0.5% crystal violet in buffered formalin) and incubated for 15 minutes. The stain was aspirated, and cells were washed three times with 0.5 mL of 1×PBS. After collections were completed, crystal violet-stained plates were solubilized using 0.5 mL on each well of 10% acetic acid and placed on a shaker for 1 hour. Solubilized samples were transferred to 96 well plates and quantified on a spectrophotometer at 590 nm using iMark Microplate Absorbance Reader (Bio-Rad, Hercules, CA). Quantified plates were analyzed with a Tukey Test. Error bars were added using the standard deviation.

LN18 = experiment: Colony formation assay (crystal violet); conditions: treated five days
Procedure: as §2

MDA-MB-468 cells = experiment: Gene expression by qRT-PCR (TUBB reference)
Procedure: as §1

With `Nc1ncn([C@H]2C[C@H](O)[C@@H](CO)O2)c(=O)n1` [5-AZA, 5-aza-2′-deoxycytidine] the “FAS and BIM expression” value (BT549 cells; 3 μM for 48 hours) was “induced FAS and BIM”.
In the case of `CN(C(=O)CC1CCCC1)c1ccc(Cl)c(COc2cccc3cnccc23)c1Cl` [AS1708727, 2-cyclopentyl-N-[2,4-dichloro-3-(isoquinolin-5-yloxymethyl)phenyl] N-methylacetamide], the colony formation (MDA-MB-468) is reported as “reduced colony formation”, the colony formation (BT549) is reported as “reduced colony formation” and the colony formation (LN18) is reported as “reduced colony formation”. The “FAS and BIM gene induction, comparison of the two inhibitors” value (BT549 cells) was “only induced the FAS gene”, the FAS gene expression (BT549 cells; 1 μM treatment for 4 days) was “increased FAS gene expression” and the “FAS and BIM gene induction, comparison of the two inhibitors” value (MDA-MB-468 cells) was “only induced the FAS gene”. The FAS gene expression (MDA-MB-468 cells; four days, 1 μM for two days) was “increased FAS gene expression”.
